Assay results from ChEMBL document CHEMBL1201861, “Genomics of Drug Sensitity in Cancer screening data, Wellcome Trust Sanger Institute”.

Columns and labels:
Experiment in all cases: cells
COLO-741 = type: functional, cell-based, Homo sapiens; settings: Homo sapiens, COLO-741
COLO-829 = type: functional, cell-based, Homo sapiens; settings: Homo sapiens, COLO-829
Calu-3 = type: functional, cell-based, Homo sapiens; settings: Homo sapiens, Calu-3;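 further: growth inhibition of human Calu-3 cells, determined with a cell viability assay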
EKVX = type: functional, cell-based, Homo sapiens; settings: Homo sapiens, EKVX;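 further: growth inhibition of human EKVX cells, read out with a cell viability assay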
ES8 = type: functional, cell-based, Homo sapiens; settings: Homo sapiens, ES8;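 further: growth inhibition of human ES8 cells, read out with a cell viability assay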
EW-16 = type: functional, cell-based, Homo sapiens; settings: Homo sapiens, EW-16;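 further: growth inhibition of human EW-16 cells, read out as cell viability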
GAK = type: functional, cell-based, Homo sapiens; settings: Homo sapiens, GAK;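 further: cell growth inhibition read out by a cell viability assay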
GI-ME-N = type: functional, cell-based, Homo sapiens; settings: Homo sapiens, GI-ME-N;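 further: growth inhibition of human GI-ME-N cells, read out with a cell viability assay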
GMS-10 = type: functional, cell-based, Homo sapiens; settings: Homo sapiens, GMS-10;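 further: growth inhibition of GMS-10 cells, read out as cell viability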
HCC2218 = type: functional, cell-based; settings: Homo sapiens;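 further: cell viability assay read-out, with IC50 given as the concentration that inhibits growth of the cell line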
HCC38 = type: functional, cell-based, Homo sapiens; settings: Homo sapiens, HCC38;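 further: cell viability assay on the human HCC38 cell line, with IC50 marking the concentration that inhibits cell growth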
HCE-T = type: functional, cell-based, Homo sapiens; settings: Homo sapiens, HCE-T;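 further: cell viability assay read-out, reporting inhibition of HCE-T cell growth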
HD-MY-Z = type: functional, cell-based, Homo sapiens; settings: Homo sapiens, HD-MY-Z;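 further: growth inhibition of HD-MY-Z cells, read out with a cell viability assay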
HOP-62 = type: functional, cell-based, Homo sapiens; settings: Homo sapiens, HOP-62;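 further: cell growth inhibition determined with a viability assay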
HuP-T3 = type: functional, cell-based, Homo sapiens; settings: Homo sapiens, HuP-T3;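 further: HuP-T3 cell growth inhibition, read out with a cell viability assay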
IST-MES1 = type: functional, cell-based, Homo sapiens; settings: Homo sapiens, IST-MES1;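 further: growth inhibition of IST-MES1 cells, measured with a cell viability assay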
KARPAS-299 = type: functional, cell-based; settings: Homo sapiens
KP-N-YN = type: functional, cell-based; settings: Homo sapiens;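 further: growth inhibition of KP-N-YN cells, read out with a cell viability assay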
KURAMOCHI = type: functional, cell-based; settings: Homo sapiens;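 further: growth inhibition of KURAMOCHI cells, read out with a cell viability assay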
L-363 = type: functional, cell-based; settings: Homo sapiens
LB1047-RCC = type: functional, cell-based, Homo sapiens; settings: Homo sapiens, LB1047-RCC;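 further: inhibition of cell growth, determined with a cell viability assay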
LK-2 = type: functional, cell-based, Homo sapiens; settings: Homo sapiens, LK-2;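 further: growth inhibition of LK-2 cells, read out with a viability assay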
MZ7-mel = type: functional, cell-based, Homo sapiens; settings: Homo sapiens, MZ7-mel;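 further: growth inhibition of human MZ7-mel cells, measured by a cell viability assay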
NB14 = type: functional, cell-based; settings: Homo sapiens;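 further: growth inhibition of NB14 cells measured with a cell viability assay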
NB6 = type: functional, cell-based, Homo sapiens; settings: Homo sapiens, NB6;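 further: growth inhibition of NB6 cells, read out by a cell viability assay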
NCI-H2052 = type: functional, cell-based, Homo sapiens; settings: Homo sapiens, NCI-H2052;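 further: growth inhibition of NCI-H2052 cells, read out with a cell viability assay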
NCI-H28 = type: functional, cell-based, Homo sapiens; settings: Homo sapiens, NCI-H28;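 further: growth inhibition of human NCI-H28 cells, read out as cell viability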
NCI-N87 = type: functional, cell-based, Homo sapiens; settings: Homo sapiens, NCI-N87;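 further: growth inhibition of human NCI-N87 cells, read out with a cell viability assay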
NOMO-1 = type: functional, cell-based; settings: Homo sapiens;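 further: growth inhibition of human NOMO-1 cells measured by a cell viability assay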
OCI-AML2 = type: functional, cell-based; settings: Homo sapiens;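 further: growth inhibition of OCI-AML2 cells, read out with a cell viability assay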
OVCAR-5 = type: functional, cell-based, Homo sapiens; settings: Homo sapiens, OVCAR-5;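 further: growth inhibition of human OVCAR-5 cells, read out with a cell viability assay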
PC-3 = type: functional, cell-based, Homo sapiens; settings: Homo sapiens, PC-3;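 further: cell viability assay measuring growth inhibition of PC-3 cells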
RD = type: functional, cell-based, Homo sapiens; settings: Homo sapiens, RD
RPMI-8226 = type: functional, cell-based; settings: Homo sapiens
RXF 393 = type: functional, cell-based; settings: Homo sapiens;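 further: growth inhibition of human RXF 393 cells, read out with a cell viability assay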
SBC-1 = type: functional, cell-based; settings: Homo sapiens;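 further: cell viability assay measuring growth inhibition of the SBC-1 cell line, IC50 being the concentration that halves growth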
SF-295 = type: functional, cell-based, Homo sapiens; settings: Homo sapiens, SF-295; read-out: IC50;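 further: growth inhibition of SF-295 cells, read out with a cell viability assay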
SK-MEL-2 = type: functional, cell-based, Homo sapiens; settings: Homo sapiens, SK-MEL-2;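 further: growth inhibition of human SK-MEL-2 cells measured with a cell viability assay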
SKG-IIIa = type: functional, cell-based, Homo sapiens; settings: Homo sapiens, SKG-IIIa;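 further: cell growth inhibition, read out with a cell viability assay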
SW837 = type: functional, cell-based, Homo sapiens; settings: Homo sapiens, SW837;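 further: growth inhibition of SW837 cells, determined with a cell viability assay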
769-P = type: functional, cell-based, Homo sapiens; settings: Homo sapiens, 769-P
786-0 = type: functional, cell-based, Homo sapiens; settings: Homo sapiens
8305C = type: functional, cell-based, Homo sapiens; settings: Homo sapiens, 8305C
A2780 = type: functional, cell-based, Homo sapiens; settings: Homo sapiens, A2780;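 further: growth inhibition of A2780 cells, read out with a cell viability assay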
BB30-HNC = type: functional, cell-based, Homo sapiens; settings: Homo sapiens, BB30-HNC;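 further: growth inhibition of the cultured cell line, read out by a cell viability assay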
BHT-101 = type: functional, cell-based, Homo sapiens; settings: Homo sapiens, BHT-101
Becker = type: functional, cell-based, Homo sapiens; settings: Homo sapiens, Becker;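 further: growth inhibition of Becker cells, read out with a cell viability assay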
C-33-A = type: functional, cell-based, Homo sapiens; settings: Homo sapiens, C-33-A;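 further: cell viability assay measuring growth inhibition of C-33-A cells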
CAL-27 = type: functional, cell-based, Homo sapiens; settings: Homo sapiens, CAL-27;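 further: Viability-based readout, IC50 reflecting inhibition of CAL-27 cell growth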
TE-10 = type: functional, cell-based, Homo sapiens; settings: Homo sapiens, TE-10;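 further: growth inhibition of TE-10 cells, measured by a cell viability assay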
TE-9 = type: functional, cell-based, Homo sapiens; settings: Homo sapiens, TE-9;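 further: cell growth inhibition, measured with a cell viability readout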
UMUC3 = type: functional, cell-based, Homo sapiens; settings: Homo sapiens, UMUC3;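 further: growth inhibition of human UM-UC-3 cells, read out with a cell viability assay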

With `CN(C)C/C=C/C(=O)Nc1cc2c(Nc3ccc(F)c(Cl)c3)ncnc2cc1O[C@H]1CCOC1` [AFATINIB] the IC50 (COLO-741) was > 0.5 µM, the IC50 (COLO-829) was > 0.5 µM and the IC50 (Calu-3) was > 0.5 µM. For the same compound, the IC50 (EKVX) was > 0.5 µM, the IC50 (ES8) was > 0.5 µM and the IC50 (EW-16) was > 0.5 µM. The IC50 (GAK) was […], the IC50 (GI-ME-N) was > 0.5 µM and the IC50 (GMS-10) was > 0.5 µM. For the same compound, the IC50 (HCC2218) was 0.00987 µM, the IC50 (HCC38) was > 0.5 µM and the IC50 (HCE-T) was > 0.5 µM. For the same compound, the IC50 (HD-MY-Z) was > 0.5 µM, the IC50 (HOP-62) was > 0.5 µM and the IC50 (HuP-T3) was > 0.5 µM. The IC50 (IST-MES1) was > 0.5 µM, the IC50 (KARPAS-299) was > 0.5 µM and the IC50 (KP-N-YN) was > 0.5 µM. For the same compound, the IC50 (KURAMOCHI) was > 0.5 µM, the IC50 (L-363) was > 0.5 µM and the IC50 (LB1047-RCC) was > 0.5 µM. For the same compound, the IC50 (LK-2) was > 0.5 µM, the IC50 (MZ7-mel) was > 0.5 µM and the IC50 (NB14) was > 0.5 µM. For the same compound, the IC50 (NB6) was > 0.5 µM, the IC50 (NCI-H2052) was > 0.5 µM and the IC50 (NCI-H28) was > 0.5 µM. For the same compound, the IC50 (NCI-N87) was 0.0277 µM, the IC50 (NOMO-1) was > 0.5 µM and the IC50 (OCI-AML2) was > 0.5 µM. For the same compound, the IC50 (OVCAR-5) was > 0.5 µM, the IC50 (PC-3) was > 0.5 µM and the IC50 (RD) was > 0.5 µM. For the same compound, the IC50 (RPMI-8226) was > 0.5 µM, the IC50 (RXF 393) was > 0.5 µM and the IC50 (SBC-1) was 0.19 µM. For the same compound, the IC50 (SF-295) was > 0.5 µM, the IC50 (SK-MEL-2) was > 0.5 µM and the IC50 (SKG-IIIa) was > 0.5 µM. For the same compound, the IC50 (SW837) was > 0.5 µM, the IC50 (769-P) was > 0.5 µM and the IC50 (786-0) was > 0.5 µM. For the same compound, the IC50 (8305C) was > 0.5 µM, the IC50 (A2780) was > 0.5 µM and the IC50 (BB30-HNC) was 0.166 µM. The IC50 (BHT-101) was > 0.5 µM, the IC50 (Becker) was > 0.5 µM and the IC50 (C-33-A) was > 0.5 µM. The IC50 (CAL-27) was 0.176 µM, the IC50 (TE-10) was > 0.5 µM and the IC50 (TE-9) was > 0.5 µM. The IC50 (UMUC3) was > 0.5 µM.
For `Nc1ccn([C@@H]2O[C@H](CO)[C@@H](O)[C@@H]2O)c(=O)n1` [CYTARABINE], the IC50 (COLO-741) was > 2 µM, the IC50 (COLO-829) was 1.86 µM and the IC50 (Calu-3) was > 2 µM. The IC50 (EKVX) was > 2 µM, the IC50 (ES8) was 0.124 µM and the IC50 (EW-16) was 0.266 µM. For the same compound, the IC50 (GAK) was > 2 µM, the IC50 (GI-ME-N) was 1.66 µM and the IC50 (GMS-10) was 0.396 µM. For the same compound, the IC50 (HCC2218) was > 2 µM, the IC50 (HCC38) was 1.88 µM and the IC50 (HCE-T) was > 2 µM. For the same compound, the IC50 (HD-MY-Z) was 0.745 µM, the IC50 (HOP-62) was > 2 µM and the IC50 (HuP-T3) was 0.856 µM. The IC50 (IST-MES1) was > 2 µM, the IC50 (KARPAS-299) was > 2 µM and the IC50 (KP-N-YN) was > 2 µM. The IC50 (L-363) was 1.34 µM, the IC50 (LB1047-RCC) was 0.108 µM and the IC50 (LK-2) was 0.461 µM. The IC50 (MZ7-mel) was 0.417 µM, the IC50 (NB14) was 0.31 µM and the IC50 (NB6) was > 2 µM. The IC50 (NCI-H2052) was > 2 µM, the IC50 (NCI-H28) was 1.82 µM and the IC50 (NCI-N87) was > 2 µM. The IC50 (NOMO-1) was > 2 µM, the IC50 (OCI-AML2) was 0.545 µM and the IC50 (OVCAR-5) was 0.22 µM. For the same compound, the IC50 (PC-3) was 1.28 µM, the IC50 (RD) was 1.27 µM and the IC50 (RPMI-8226) was > 2 µM. The IC50 (RXF 393) was 0.7 µM, the IC50 (SBC-1) was > 2 µM and the IC50 (SF-295) was > 2 µM. The IC50 (SK-MEL-2) was > 2 µM, the IC50 (SKG-IIIa) was 0.915 µM and the IC50 (SW837) was > 2 µM. The IC50 (769-P) was 0.228 µM, the IC50 (786-0) was 0.669 µM and the IC50 (8305C) was > 2 µM. For the same compound, the IC50 (A2780) was 0.162 µM, the IC50 (BB30-HNC) was > 2 µM and the IC50 (BHT-101) was 0.0418 µM. The IC50 (Becker) was 1.1 µM, the IC50 (C-33-A) was 0.551 µM and the IC50 (CAL-27) was 1.93 µM. The IC50 (TE-10) was > 2 µM, the IC50 (TE-9) was 1.79 µM and the IC50 (UMUC3) was 0.342 µM.
